Experimental data from US12344614B2, “Benzodiazepine derivatives as GABA a GAMMA1 PAM” (Hoffmann-La Roche Inc., priority 2021, dated 2025).
Where two headings read alike, the source gives them in different places.

Legend:
h-GABA-A α2β2γ1 receptor = h-GABA-A α2β2γ1 receptor (Homo sapiens (Human), UniProt P47869+Q8N1C3); assay: Two-electrode voltage clamp electrophysiology in Xenopus oocytes expressing GABAA receptors; format: cell-based; details: for Efficacy (GABA) %: % modulation of GABA EC20 = 100*(Fold increase−1), compound at 30-fold Ki α2β2γ1; for Fold increase h-GABA-A α2β2γ1 oocyte @ 30-fold Ki: Xenopus oocytes, GABA EC20, test compound at approx. 30-fold its Ki α2β2γ1
Description: Xenopus laevis oocytes at maturation stages V-VI were used for the expression of cloned mRNA encoding GABAA receptor subunits. Oocytes ready for RNA micro-injection were bought from Ecocyte, Castrop-Rauxel, Germany and stored in modified Barth's medium (composition in mM: NaCl 88, KCl 1, NaHCO3 2.4, HEPES 10, MgSO4 0.82, CaNO3 0.33, CaCl2 0.33, pH=7.5) at 20° C. until the experiment.
Oocytes were plated in 96-well plates for microinjection using the Roboinject automated instrument (MultiChannelSystems, Reutlingen, Germany). Approximately 50 nL of an aqueous solution containing the RNA transcripts for the subunits of the desired GABAA receptor subtype was injected into each oocyte. […] Oocytes were kept in modified Barth's medium (composition in mM: NaCl 88, KCl 1, NaHCO3 4, HEPES 10, MgSO4 0.82, CaNO3 0.33, CaCl, 0.33, pH=7.5) at 20° C. until the experiment.
Electrophysiological experiments were performed using the Roboocyte instrument (MultiChannelSystems, Reutlingen, Germany) on days 3 to 5 after the micro-injection of mRNA. During the experiment the oocytes were constantly superfused by a solution containing (in mM) NaCl 90, KCl 1, HEPES 5, MgCl2 1, CaCl2 1 (pH 7.4). Oocytes were impaled by two glass microelectrodes (resistance: 0.5-0.8 MΩ) which were filled with a solution containing KCl 1M+K-acetate 1.5 M and voltage-clamped to −80 mV. The recordings were performed at room temperature using the Roboocyte two-electrode voltage clamp system (Multichannelsystem). After an initial equilibration period of 1.5 min GABA was added for 1.5 min at a concentration evoking approximately 20% of a maximal current response (EC2O). After another rest interval of 2.5 min GABA was again added evoking a response of similar amplitude and shape. […] Current traces were recorded at a digitization rate of 10 Hz during and shortly before and after the GABA application.
Each compound and concentration was tested on at least 3 oocytes. Different oocytes were used for different compound concentrations.
For the analysis, the digitized current traces of the first and second GABA response were superimposed and, if necessary, rescaled to equal maximal amplitudes. The ratio between the two responses during the time interval of test compound application was calculated point by point. The extremum of the resulting “ratio trace” was taken as the efficacy (“Fold increase”) of the compound expressed as “% modulation of GABA EC20” (100*(Fold increase−1)).

[1] = target: human GABAA α1β2γ1 receptor (Homo sapiens (Human), UniProt P14867+Q8N1C3); assay: Radioligand binding assay, competition for [3H]RO7239181, membranes from HEK293F cells

For `Cc1nnc2n1-c1ccc(Cl)c(Cl)c1C(c1cc(O)ccc1F)=NC2` [Example 3, 3-(7,8-dichloro-1-methyl-4H-[1,2,4]triazolo[4,3-a][1,4]benzodiazepin-6-yl)-4-fluoro-phenol], the “Efficacy (GABA) %” value (h-GABA-A α2β2γ1 receptor) was 67%, the “Fold increase h-GABA-A α2β2γ1 oocyte @ 30-fold Ki” value (h-GABA-A α2β2γ1 receptor) was 1.67 and the Ki [1] was 5.44 nM.

With `Cc1nnc2n1-c1ccc(C(F)(F)F)c(Cl)c1C(c1nc(O)ccc1F)=N[C@H]2C` [Example 20, 6-[(4S)-7-chloro-1,4-dimethyl-8-(trifluoromethyl)-4H-[1,2,4]triazolo[4,3-a][1,4]benzodiazepin-6-yl]-5-fluoro-pyridin-2-ol] the “Efficacy (GABA) %” value (h-GABA-A α2β2γ1 receptor) was 120%, the “Fold increase h-GABA-A α2β2γ1 oocyte @ 30-fold Ki” value (h-GABA-A α2β2γ1 receptor) was 2.20 and the Ki [1] was 68.1 nM.

With `COC1CN(C(=O)c2nc3n(n2)-c2ccc(C(F)(F)F)c(Cl)c2C(c2cc(O)ccc2F)=NC3)C1` [Example 16, [7-chloro-6-(2-fluoro-5-hydroxy-phenyl)-8-(trifluoromethyl)-4H-[1,2,4]triazolo[1,5-a][1,4]benzodiazepin-2-yl]-(3-methoxyazetidin-1-yl)methanone] the “Efficacy (GABA) %” value (h-GABA-A α2β2γ1 receptor) was 48%, the “Fold increase h-GABA-A α2β2γ1 oocyte @ 30-fold Ki” value (h-GABA-A α2β2γ1 receptor) was 1.48 and the Ki ([1]; [3H]RO7239181 20-30 nM, HEK293F membranes, 1 hour at 4° C., mean of two determinations, read-out: Ki h-GABAA α1β2γ1) was 11.4 nM.

`Cc1nnc2n1-c1ccc(Cl)c(Cl)c1C(c1cc(O)ccc1F)=N[C@H]2C` [Example 4, 4-fluoro-3-[(4S)-7,8-dichloro-1,4-dimethyl-4H-[1,2,4]triazolo[4,3-a][1,4]benzodiazepin-6-yl]phenol] was tested, and the “Efficacy (GABA) %” value (h-GABA-A α2β2γ1 receptor) was 33%, the “Fold increase h-GABA-A α2β2γ1 oocyte @ 30-fold Ki” value (h-GABA-A α2β2γ1 receptor) was 1.33 and the Ki [1] was 3.35 nM.
